Patent US20080262073A1, “Pyrrolic Derivatives with Histone Deacetylase Inhibitory Activity” (priority 2005, published 2008)

Compared with `COc1ccc(-c2cc(-c3ccccc3)[nH]c2C(=O)NCCCCCC(=O)NO)cc1` [Example 8], `COc1ccc(-c2cc(-c3ccccc3)c(C(=O)NCCCCCC(=O)NO)[nH]2)cc1` [Example 6] is higher in melting point: 142 °C for the first, 157 to 158 °C for the second.

First: CNNC(=O)NCCCCNC(=O)c1[nH]c(-c2ccc(OC)cc2)c([N+](=O)[O-])c1-c1cccs1 [Example 11, 1-(4-(5-(4-methoxyphenyl)-4-nitro-3-(thiophene-2-yl)-1H-pyrrole-2-carboxamide)butyl)-3-(2-methylamine)urea]
Second: COc1ccc(-c2[nH]c(C(=O)NCCCCCC(=O)NO)c(-c3ccccc3)c2[N+](=O)[O-])cc1 [Example 7]
The melting point of the first is higher: 185 to 187 °C for the first, 126 to 127 °C for the second.

First: O=C(O)CCCCCNC(=O)c1[nH]c(-c2ccccc2)cc1-c1ccccc1 [Example 4, 6-(3,5-diphenyl-1H-pyrrole-2-carboxamide)hexanoic acid]
Second: O=C(O)CCCCCNC(=O)c1[nH]c(-c2ccccc2)c([N+](=O)[O-])c1-c1ccccc1 [Example 5, 6-(4-nitro-3,5-diphenyl-1H-pyrrole-2-carboxamide)hexanoic acid]
The melting point of the first is higher: 228 to 229 °C for the first, 153 to 154 °C for the second.
